Results as given in patent publication US8163960B2, “Process for preparing and drying solid rasagiline base” (Teva Pharmaceutical Industries, Ltd., priority 2008, dated 2012).
In brackets after ≈: the same amount, converted by molar mass. Structures can show the parent of a compound that is named as a salt. Where two headings read alike, the source gives them in different places.

Columns and labels:
[1] = 48 hrs in air; 7-8° C. or ambient temperature
Procedure: Two batches of Rasagiline base were prepared in order to simulate the storage of Rasagiline base in ethanol solution at different temperatures.
17.0 g of Rasagiline base oil was dissolved in 17 g absolute ethanol. The resulting solution was introduced into refrigerator and stored at 7-8° C. for 48 hrs. The ethanol solution was sampled (sample 1).
The reactor was cooled (Tj=11° C.) and 8 g of water was introduced at stirring. Then the solution was seeded with solid Rasagiline base and crystallization was observed. The batch was stirred for 15 min at 11-12° C. and then 33.8 g of water was added. The resulting suspension was cooled to 4° C. and stirred at 1-4° C. for 30 min. The solid was filtered and washed twice with 17 ml water. Wet solid product (17.6 g) was dried under vacuum.
17.0 g of Rasagiline base oil was dissolved in 17 g absolute ethanol. The resulting solution was stored at ambient temperature (20-28° C.) for 48 hrs. The ethanol solution was sampled (sample 1).
The reactor was cooled (Tj=11° C.) and 8 g of water was introduced at stirring. Then the solution was seeded with solid Rasagiline base and crystallization was observed. The batch was stirred for 20 min at 11-12° C. and then 33.8 g water was added. The resulting suspension was cooled to 4° C. and stirred at 1-4° C. for 30 min. The batch was filtered and washed twice with 17 ml water. […]

[2] = Procedure: Approximately four (4) grams of rasagiline base was introduced into the sublimation reservoir of a standard Sigma-Aldrich glass sublimation apparatus, (Cat. No. Z221171-1EA) with internal diameter of 3 cm. The apparatus was equipped with vacuum pump, vacuumeter and circulating ice-water bath for cooling of the apparatus' sublimation head. The apparatus was then closed and circulation of coolant at 0 to 1° C. was started. The vacuum was then built to a pressure (“P”) of 2-3 mbar and the reservoir was introduced into thermostatic water bath maintained at temperature (“T”) of 21° C.
The process was controlled by visual observation of the sublimed solid forming on the sublimation head. After sublimation completed the operation time was recorded, the apparatus was opened and the sublimed solid was removed from the head and weighed.
The mean sublimation rate was calculated as follows:
Mean Sublimation Rate Rs1: Rs1=m/M·t [gg^−1hr^−1]
Mean Sublimation Rate Rs2: Rs2=m/S·t [gm^−2hr^−1]
Mean Relative Sublimation Rate R: R=m·100/M·t [%/hr] m—mass of sublimed material, g M—mass of starting material, g t=sublimation time, hrs S=sublimation area (apparatus section area), m^2

physchem = settings: 25 °C
[3] = alcohols, acetone, ethyl acetate, toluene, diethyl ether, dioxane, hexane and n-heptane
[4] = for Description: wet with water, RT, protected from light
Procedure: Rasagiline Base wet with water produced in Example […] was stored at ambient temperature (RT) in polyethylene bag inside aluminium laminate bag protected from light. The solid was sampled, dried to constant weight under vacuum and analyzed. The sampling and analysis were performed at time zero, than after 2 weeks and 4 weeks from zero time.

[5] = low levels of volatiles by KF and TGA
[6] = Stability test for dried Rasagiline Tartrate Pure; assay type: physicochemical; settings: for Chromatographic purity by HPLC: 1-Aminoindan / Chromatographic purity by HPLC: Any other / Description / ID by HPLC / L.O.D. / S-isomer by HPLC: RT, polyethylene bag
From the text: A batch of dry Rasagiline Tartrate Pure produced in Example ?? was stored at ambient temperature (RT) in polyethylene bag. The solid was sampled and analyzed at time zero, than after 2 weeks and 4 weeks from time zero.

[7] = Stability test for wet Rasagiline Tartrate Pure; assay type: physicochemical; settings: for L.O.D.: samples dried prior to analysis; for Description: wet with isopropanol and water; for Description / Chromatographic purity by HPLC: 1-Aminoindan / Chromatographic purity by HPLC: Any other / ID by HPLC / S-isomer by HPLC: RT, polyethylene bag; for Chromatographic purity by HPLC: 1-Aminoindan / Chromatographic purity by HPLC: Any other / ID by HPLC / S-isomer by HPLC: wet
From the text: Rasagiline Tartrate Pure wet with isopropanol and water was stored at ambient temperature (RT) in polyethylene bag. The solid was sampled, dried to constant weight and analyzed.

[8] = Ex. 12, solid, 2-3 mbar, 21 °C, 8.0 hr
[9] = Ex. 13, solid, 2-3 mbar, 35 °C, 5.33 hr
[10] = Ex. 14, melt, 2-3 mbar, 60 °C, 4.0 hr
[11] = Ex. 15, solid, 20 mbar, 21 °C, 8.5 hr
[12] = Ex. 16, solid, 40 mbar, 21 °C, 8.5 hr
[13] = Ex. 17, solid, 40 mbar, 35 °C, 5.33 hr
[14] = Ex. 18, solid, 20 mbar, 35 °C, 5.33 hr
[15] = Ex. 19, melt, 40 mbar, 60 °C, 5.33 hr
[16] = Ex. 20, melt, 20 mbar, 60 °C, 5.33 hr
[17] = Ex. 21, oil, 20 mbar, 22 °C, 8.0 hr
[18] = Ex. 22, oil, 20 mbar, 35 °C, 5.33 hr
[19] = Ex. 23, oil, 2-3 mbar, 22 °C, 3.0 hr
[20] = Ex. 24, oil, 2-3 mbar, 60 °C, 1.3 hr

C#CCN[C@@H]1CCc2ccccc21 [rasagiline base, R(+)-N-propargyl-1-aminoindan]
effect of holding as ethanol solution on yield and quality of solid product [1]: do not affect the yield and quality of solid product
Mean relative sublimation rate R [2, 8]: 0.0312 %/hr
Mean sublimation rate Rs1 [2, 8]: 3.12e-05 g/g/h
Mean sublimation rate Rs2 [2, 8]: 1.333 g/hr/m^2
Sublimed solid fraction [2, 8]: 0.25%
−log Rs1 [2, 8]: 4.5
Mean relative sublimation rate R [2, 9]: 0.116 %/hr
Mean sublimation rate Rs1 [2, 9]: 0.00117 g/g/h
Mean sublimation rate Rs2 [2, 9]: 4.978 g/hr/m^2
Sublimed solid fraction [2, 9]: 0.62%
−log Rs1 [2, 9]: 2.93
Mean relative sublimation rate R [2, 10]: 5.6 %/hr
Mean sublimation rate Rs1 [2, 10]: 0.0562 g/g/h
Mean sublimation rate Rs2 [2, 10]: 236.19 g/hr/m^2
Sublimed solid fraction [2, 10]: 22.4%
−log Rs1 [2, 10]: 1.25
Mean relative sublimation rate R [2, 11]: 0.0 %/hr
Mean sublimation rate Rs1 [2, 11]: 0.0 g/g/h
Mean sublimation rate Rs2 [2, 11]: 0.0 g/hr/m^2
Sublimed solid fraction [2, 11]: 0.0%
Mean relative sublimation rate R [2, 12]: 0.0 %/hr
Mean sublimation rate Rs1 [2, 12]: 0.0 g/g/h
Mean sublimation rate Rs2 [2, 12]: 0.0 g/hr/m^2
Sublimed solid fraction [2, 12]: 0.0%
Mean relative sublimation rate R [2, 13]: 0.0375 %/hr
Mean sublimation rate Rs1 [2, 13]: 0.000375 g/g/h
Mean sublimation rate Rs2 [2, 13]: 1.593 g/hr/m^2
Sublimed solid fraction [2, 13]: 0.20%
−log Rs1 [2, 13]: 3.42
Mean relative sublimation rate R [2, 14]: 0.0506 %/hr
Mean sublimation rate Rs1 [2, 14]: 0.000515 g/g/h
Mean sublimation rate Rs2 [2, 14]: 2.192 g/hr/m^2
Sublimed solid fraction [2, 14]: 0.27%
−log Rs1 [2, 14]: 3.29
Mean relative sublimation rate R [2, 15]: 0.116 %/hr
Mean sublimation rate Rs1 [2, 15]: 0.00117 g/g/h
Mean sublimation rate Rs2 [2, 15]: 4.978 g/hr/m^2
Sublimed solid fraction [2, 15]: 0.62%
−log Rs1 [2, 15]: 2.93
Mean relative sublimation rate R [2, 16]: 0.769 %/hr
Mean sublimation rate Rs1 [2, 16]: 0.00764 g/g/h
Mean sublimation rate Rs2 [2, 16]: 32.26 g/hr/m^2
Sublimed solid fraction [2, 16]: 4.1%
−log Rs1 [2, 16]: 2.12
solubility (physchem; pH 11, water): 5.5 mg/mL (≈ 32.1 mM)
solubility in organic solvents [3]: freely soluble
Assay by HPLC ([4]; 2 weeks): 100.5 % on dry basis
Enantiomeric purity by HPLC (S-isomer) ([4]; 2 weeks): L.T. 0.1%
ID by HPLC ([4]; 2 weeks): Conforms
IDD by HPLC: 1-Aminoindan ([4]; 2 weeks): L.T. 0.02%
IDD by HPLC: 1-Indanone ([4]; 2 weeks): L.T. 0.02%
IDD by HPLC: 3-PAIO ([4]; 2 weeks): L.T. 0.02%
IDD by HPLC: Any other ([4]; 2 weeks): L.T. 0.02%
IDD by HPLC: Total ([4]; 2 weeks): L.T. 0.02%
Water content by CKF ([4]; 2 weeks): 0.04%
Assay by HPLC ([4]; 4 weeks): 100.7 % on dry basis
Enantiomeric purity by HPLC (S-isomer) ([4]; 4 weeks): L.T. 0.1%
ID by HPLC ([4]; 4 weeks): Conforms
IDD by HPLC: 1-Aminoindan ([4]; 4 weeks): L.T. 0.02%
IDD by HPLC: 1-Indanone ([4]; 4 weeks): L.T. 0.02%
IDD by HPLC: 3-PAIO ([4]; 4 weeks): L.T. 0.02%
IDD by HPLC: Any other ([4]; 4 weeks): L.T. 0.02%
IDD by HPLC: Total ([4]; 4 weeks): L.T. 0.02%
Water content by CKF ([4]; 4 weeks): 0.03%
Assay by HPLC ([4]; Start (t = 0)): 100.1 % on dry basis
Enantiomeric purity by HPLC (S-isomer) ([4]; Start (t = 0)): L.T. 0.1%
ID by HPLC ([4]; Start (t = 0)): Conforms
IDD by HPLC: 1-Aminoindan ([4]; Start (t = 0)): L.T. 0.02%
IDD by HPLC: 1-Indanone ([4]; Start (t = 0)): L.T. 0.02%
IDD by HPLC: 3-PAIO ([4]; Start (t = 0)): L.T. 0.02%
IDD by HPLC: Any other ([4]; Start (t = 0)): L.T. 0.02%
IDD by HPLC: Total ([4]; Start (t = 0)): L.T. 0.02%
Water content by CKF ([4]; Start (t = 0)): 0.04%
Time limitation ([4]; Storage temperature +2-+8° C.): One month
Description ([4]; 2 weeks): White solid
Description ([4]; 4 weeks): White solid
Description ([4]; Start (t = 0)): White solid
hygroscopicity [5]: not hygroscopic

C#CCN[C@@H]1CCc2ccccc21 [rasagiline mesylate]
solubility (physchem; pH 3.3, water): 570 mg/mL
solubility (physchem; pH 6.7, water): 92 mg/mL

C#CCN[C@@H]1CCc2ccccc21.C#CCN[C@@H]1CCc2ccccc21.O=C(O)C(O)C(O)C(=O)O [Dry GA-18062]
Chromatographic purity by HPLC: 1-Aminoindan ([6]; 2 weeks): L.T. 0.03%
Chromatographic purity by HPLC: Any other ([6]; 2 weeks): L.T. 0.03%
Description ([6]; 2 weeks): White
ID by HPLC ([6]; 2 weeks): Conforms
L.O.D. ([6]; 2 weeks): 0.16%
S-isomer by HPLC ([6]; 2 weeks): L.T. 0.3%
Chromatographic purity by HPLC: 1-Aminoindan ([6]; 4 weeks): L.T. 0.03%
Chromatographic purity by HPLC: Any other ([6]; 4 weeks): L.T. 0.03%
Description ([6]; 4 weeks): White
ID by HPLC ([6]; 4 weeks): Conforms
L.O.D. ([6]; 4 weeks): 0.03%
S-isomer by HPLC ([6]; 4 weeks): L.T. 0.3%
Chromatographic purity by HPLC: 1-Aminoindan ([6]; Start (t = 0)): L.T. 0.03%
Chromatographic purity by HPLC: Any other ([6]; Start (t = 0)): L.T. 0.03%
Description ([6]; Start (t = 0)): White
ID by HPLC ([6]; Start (t = 0)): Conforms
L.O.D. ([6]; Start (t = 0)): 0.03%
S-isomer by HPLC ([6]; Start (t = 0)): L.T. 0.3%
Time limitation ([6]; Storage temperature R.T.): One month

C#CCNC1CCc2ccccc21 (racemic) [Rac.PAI oil, N-propargyl-1-aminoindan, reference compound]
Mean relative sublimation rate R [2, 17]: 0.0 %/hr
Mean sublimation rate Rs1 [2, 17]: 0.0 g/g/h
Mean sublimation rate Rs2 [2, 17]: 0.0 g/hr/m^2
Sublimed solid fraction [2, 17]: 0.0%
Mean relative sublimation rate R [2, 18]: 0.0 %/hr
Mean sublimation rate Rs1 [2, 18]: 0.0 g/g/h
Mean sublimation rate Rs2 [2, 18]: 0.0 g/hr/m^2
Sublimed solid fraction [2, 18]: 0.0%
Mean relative sublimation rate R [2, 19]: 0.08 %/hr
Mean sublimation rate Rs2 [2, 19]: 3.537 g/hr/m^2
Sublimed solid fraction [2, 19]: 0.25%
−log Rs1 [2, 19]: 3.08
Mean sublimation rate Rs1 ([2]; Ex. 23, oil, 2-3 mbar, 22 °C, 3.0 hr, listed as racemic PAI): 0.000833 g/g/h
Mean relative sublimation rate R [2, 20]: 2.5 %/hr
Mean sublimation rate Rs2 [2, 20]: 101.16 g/hr/m^2
Sublimed solid fraction [2, 20]: 3.25%
−log Rs1 [2, 20]: 1.60
Mean sublimation rate Rs1 ([2]; Ex. 24, oil, 2-3 mbar, 60 °C, 1.3 hr, listed as racemic PAI): 0.025 g/g/h

C#CCN[C@@H]1CCc2ccccc21.C#CCN[C@@H]1CCc2ccccc21.O=C(O)C(O)C(O)C(=O)O [Wet RB-2087]
Time limitation ([7]; Storage temperature R.T.): One month
L.O.D. ([7]; 2 weeks): 0.05%
L.O.D. ([7]; 4 weeks): 0.04%
L.O.D. ([7]; Start (t = 0)): 0.01%
Description ([7]; 2 weeks): White
Description ([7]; 4 weeks): White
Description ([7]; Start (t = 0)): White
Chromatographic purity by HPLC: 1-Aminoindan ([7]; 2 weeks): L.T. 0.03%
Chromatographic purity by HPLC: Any other ([7]; 2 weeks): L.T. 0.03%
ID by HPLC ([7]; 2 weeks): Conforms
S-isomer by HPLC ([7]; 2 weeks): L.T. 0.3%
Chromatographic purity by HPLC: 1-Aminoindan ([7]; 4 weeks): L.T. 0.03%
Chromatographic purity by HPLC: Any other ([7]; 4 weeks): L.T. 0.03%
ID by HPLC ([7]; 4 weeks): Conforms
S-isomer by HPLC ([7]; 4 weeks): L.T. 0.3%
Chromatographic purity by HPLC: 1-Aminoindan ([7]; Start (t = 0)): L.T. 0.03%
Chromatographic purity by HPLC: Any other ([7]; Start (t = 0)): L.T. 0.03%
ID by HPLC ([7]; Start (t = 0)): Conforms
S-isomer by HPLC ([7]; Start (t = 0)): L.T. 0.3%
